Data from the supplement of paper PMC10307832.

Tests used:
Assay in all cases: relative viability (nuclei count vs DMSO), 5 days (fraction); higher = more cells survive
[1] = compound: CC1=C(C(=O)N2C=CSC2=N1)CCN3CCC(=C(C4=CC=CC=C4)C5=CC=C(C=C5)F)CC3
Method in brief: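 Hoechst staining, done together with fixation and permeabilisation, marked nuclei for 4× imaging and MetaXpress counting. This followed 5 days without medium change after lung cancer cell lines, kept overnight at 37 °C in 1536-well plates, were pinned with five library-drug doses (not always all listed) spaced by √10 on vehicle-anchored plates. Viability is the ratio of treated-well to vehicle-well nuclei, expressed as a median across plates. Plates passed only at control CV below 25% with at least one doubling.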

[2] = compound: CC1=C(C(=O)N2C=CSC2=N1)CCN3CCC(=C(C4=CC=CC=C4)C5=CC=C(C=C5)F)CC3 + CC(C)C[C@H](NC(=O)[C@H](Cc1ccccc1)NC(=O)c1cnccn1)B(O)O [Bortezomib] (partner 0.002 µM)
Method in brief: (§1)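 Relative viability equals treated-well nuclei counts divided by vehicle-well nuclei counts. Counts came from 4× images of lung cancer cell lines grown in 1536-well plates for 5 days after pin-tool dosing on the day after seeding. Dosing used one drug alone or a fixed anchor-drug dose plus five library-drug doses (not always all listed) in √10 steps, and values are medians of duplicate plates.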

[3] = compound: CC1=C(C(=O)N2C=CSC2=N1)CCN3CCC(=C(C4=CC=CC=C4)C5=CC=C(C=C5)F)CC3 + O=C(c1cc(Cc2n[nH]c(=O)c3ccccc23)ccc1F)N1CCN(C(=O)C2CC2)CC1 [Olaparib] (partner 8 µM)
Method in brief: as §1

[4] = compound: CC1=C(C(=O)N2C=CSC2=N1)CCN3CCC(=C(C4=CC=CC=C4)C5=CC=C(C=C5)F)CC3 + CS(=O)(=O)CCNCc1ccc(-c2ccc3ncnc(Nc4ccc(OCc5cccc(F)c5)c(Cl)c4)c3c2)o1 [Lapatinib] (partner 2 µM)
Method in brief: as §1

[5] = compound: CC1=C(C(=O)N2C=CSC2=N1)CCN3CCC(=C(C4=CC=CC=C4)C5=CC=C(C=C5)F)CC3 + COc1cc2c(Oc3ccc(NC(=O)C4(C(=O)Nc5ccc(F)cc5)CC4)cc3F)ccnc2cc1OCCCN1CCOCC1 [Foretinib] (partner 0.25 µM)
Method in brief: as §1

[6] = compound: CC1=C(C(=O)N2C=CSC2=N1)CCN3CCC(=C(C4=CC=CC=C4)C5=CC=C(C=C5)F)CC3 + C[C@@H](Oc1cc(-c2cnn(C3CCNCC3)c2)cnc1N)c1c(Cl)ccc(F)c1Cl [Crizotinib] (partner 1 µM)
Method in brief: as §1

[7] = compound: CC1=C(C(=O)N2C=CSC2=N1)CCN3CCC(=C(C4=CC=CC=C4)C5=CC=C(C=C5)F)CC3 + CC1(C)CCC(c2ccc(Cl)cc2)=C(CN2CCN(c3ccc(C(=O)NS(=O)(=O)c4ccc(N[C@H](CCN5CCOCC5)CSc5ccccc5)c(S(=O)(=O)C(F)(F)F)c4)cc3)CC2)C1 [Navitoclax] (partner 0.5 µM)
Method in brief: as §1

[8] = compound: CC1=C(C(=O)N2C=CSC2=N1)CCN3CCC(=C(C4=CC=CC=C4)C5=CC=C(C=C5)F)CC3 + C[C@]1(O)C[C@@H](c2nc(-c3ccc4ccc(-c5ccccc5)nc4c3)c3c(N)nccn32)C1 [Linsitinib] (partner 1 µM)
Method in brief: as §1

[9] = compound: CC1=C(C(=O)N2C=CSC2=N1)CCN3CCC(=C(C4=CC=CC=C4)C5=CC=C(C=C5)F)CC3 + Cc1nc(NC(=O)N2CCC[C@H]2C(N)=O)sc1-c1ccnc(C(C)(C)C(F)(F)F)c1 [Alpelisib] (partner 2 µM)
Method in brief: as §1

[10] = compound: CC1=C(C(=O)N2C=CSC2=N1)CCN3CCC(=C(C4=CC=CC=C4)C5=CC=C(C=C5)F)CC3 + CS(=O)(=O)N1CCN(Cc2cc3nc(-c4cccc5[nH]ncc45)nc(N4CCOCC4)c3s2)CC1 [Pictilisib] (partner 1 µM)
Method in brief: as §1

EBC-1 was tested, and the relative viability ([1]; 0.08 µM) was 0.845, the relative viability ([1]; 0.253 µM) was 0.881 and the relative viability ([1]; 0.8 µM) was 1.09. It also gave a relative viability ([1]; 2.53 µM) of 1.02, a relative viability ([1]; 8 µM) of 0.671 and a relative viability ([2]; first compound 0.08 µM) of 0.57. The relative viability ([2]; first compound 0.253 µM) was 0.64, the relative viability ([2]; first compound 0.8 µM) was 0.513 and the relative viability ([2]; first compound 2.53 µM) was 0.437. It also gave a relative viability ([2]; first compound 8 µM) of 0.529, a relative viability ([3]; first compound 0.08 µM) of 0.596 and a relative viability ([3]; first compound 0.253 µM) of 0.756. The relative viability ([3]; first compound 0.8 µM) was 0.777, the relative viability ([3]; first compound 2.53 µM) was 0.772 and the relative viability ([3]; first compound 8 µM) was 0.463. The relative viability ([4]; first compound 0.08 µM) was 0.196, the relative viability ([4]; first compound 0.8 µM) was 0.212 and the relative viability ([4]; first compound 2.53 µM) was 0.191. For the same cell line, the relative viability ([4]; first compound 8 µM) was 0.225, the relative viability ([5]; first compound 0.08 µM) was 0.109 and the relative viability ([5]; first compound 0.253 µM) was 0.101. For the same cell line, the relative viability ([5]; first compound 0.8 µM) was 0.104, the relative viability ([5]; first compound 2.53 µM) was 0.108 and the relative viability ([5]; first compound 8 µM) was 0.106. For the same cell line, the relative viability ([6]; first compound 0.08 µM) was 0.215, the relative viability ([6]; first compound 0.8 µM) was 0.194 and the relative viability ([6]; first compound 2.53 µM) was 0.177. For the same cell line, the relative viability ([6]; first compound 8 µM) was 0.196, the relative viability ([7]; first compound 0.08 µM) was 0.396 and the relative viability ([7]; first compound 0.253 µM) was 0.344. The relative viability ([7]; first compound 0.8 µM) was 0.401, the relative viability ([7]; first compound 2.53 µM) was 0.316 and the relative viability ([7]; first compound 8 µM) was 0.369. The relative viability ([8]; first compound 0.08 µM) was 0.787, the relative viability ([8]; first compound 0.253 µM) was 0.804 and the relative viability ([8]; first compound 0.8 µM) was 1.1. For the same cell line, the relative viability ([8]; first compound 2.53 µM) was 0.763, the relative viability ([8]; first compound 8 µM) was 0.62 and the relative viability ([9]; first compound 0.08 µM) was 0.812. It also gave a relative viability ([9]; first compound 0.253 µM) of 0.861, a relative viability ([9]; first compound 0.8 µM) of 0.789 and a relative viability ([9]; first compound 2.53 µM) of 0.97. It also gave a relative viability ([9]; first compound 8 µM) of 0.643, a relative viability ([10]; first compound 0.08 µM) of 0.343 and a relative viability ([10]; first compound 0.253 µM) of 0.37. It also gave a relative viability ([10]; first compound 0.8 µM) of 0.29, a relative viability ([10]; first compound 2.53 µM) of 0.355 and a relative viability ([10]; first compound 8 µM) of 0.366.
